Source: patent publication US20260001879A1, “COMPOUNDS AS MYT1 INHIBITORS” (WIGEN BIOMMEDICINE TECHNOLOGY (SHANGHAI) CO., LTD., priority 2022, published 2026)
In brackets after ≈: the same amount, converted by molar mass. Read-outs that look alike come from different tables or passages of the source.

Legend:
[1] = system: MIA PaCa-2 cells; assay: In vitro anti-proliferative activity in combination with gemcitabine against MIA PaCa-2 cells; type: cell-based
Procedure: (§1) MIA PaCa-2 cells were seeded on a 384-well plate at 3000 cells/well, and 20 nM gemcitabine was added. After overnight adherence culture, DMSO or the compounds serially diluted 1:5 from 1000 nM were added. The viability was assessed 72 h after dosing by measuring the intracellular ATP content. The inhibition percentage of viable cells by the compounds was calculated by comparing with the DMSO group, and the IC50 value was calculated.

[2] = system: MDCK-Wild type; assay: in vitro
Procedure: (§2) In vitro passive permeability or the ability to serve as a P-glycoprotein (P-gp) transport substrate was tested using MDCK cells (MDCK wild type) or MDCK cells stably transduced with MDRI (MDCK-MDRI), respectively. The permeability experiment was performed in duplicate in a transwell system at a single concentration (5 μM). The cells were incubated for […] Apical-to-basolateral (A to B, A-B) transport and basolateral-to-apical (B to A, B-A) transport of the corresponding compound were determined, and the permeation rate (apparent permeability) (Papp×10^−6 cm/sec) and efflux ratio (Papp (B−A)/Papp (A−B)) of the test compound were calculated.

[3] = system: MDCK-MDR1; assay: in vitro; settings: MDCK-MDR1
Procedure: as §2

[4] = In vitro stability experiment (HPLC purity after stirring in vehicle); type: physicochemical
Procedure: (§3) Preparation of a standard curve: 10.01 mg of sample was weighed out and placed in a volumetric flask, and the volume was brought to 10 mL with acetonitrile/water (v/v, 9/1) to prepare 1.001 mg/mL of standard solution; the standard solution was then serially diluted to 0.5005 mg/mL, 0.1001 mg/mL, 0.05005 mg/mL, 0.01001 mg/mL, and 0.001001 mg/mL to generate the standard curve, and a linear equation was fitted by taking the peak area of the sample as a vertical axis and the concentration as a horizontal axis.
(§4) Solubility and stability test: 15 mg of sample was added to 3 mL of vehicle (FaSSIF, FeSSIF, SGF, or water) to prepare a corresponding suspension at a target concentration of 5 mg/mL. The prepared suspension was stirred on a shaker (800 rpm) at 37° C. for 0.5 h, and the suspension was then filtered. The filtrate was diluted with a diluent to a corresponding multiple so that the peak height could not exceed the standard curve, and the solubility and purity were detected using HPLC.

[5] = In vitro solubility experiment; type: physicochemical; settings: for solubility at 0.5 h: organic solvent or mixture, thermodynamic from solid
Procedure: as §3, §4

[6] = In vivo pharmacokinetic experiment in mice; parameters: species or system CD-1 female mice; settings: mouse
Procedure: CD-1 female mice aged 7 to 10 weeks were intravenously administered and orally administered at a dose of 2 mg/kg and 10 mg/kg, respectively. The mice were fasted for at least 12 h before the administration and given food 4 h after the administration, and they were given ad libitum access to water during the experiment. On the day of the experiment, animals in the intravenous group were administered the corresponding compound by single injection via the tail vein at an administration volume of 10 mL/kg. Animals in the oral group were administered the corresponding compound by single intragastric injection at an administration volume of 10 mL/kg. The animals were weighed before administration, and the administration volume was calculated according to the body weight. The sample collection time was 0.083 h (injection group), 0.167 h, 0.5 h, 1 h, 2 h, 4 h, 8 h, and 24 h. About 200 μL of whole blood was collected through the submaxillary venous plexus at each time point and used to prepare plasma for concentration determination by high-performance liquid chromatography-tandem mass spectrometry (LC-MS/MS). All animals were euthanized with CO2 anesthesia after the PK samples were collected at the last time point. The plasma concentrations were processed using a non-compartmental model of Phoenix WinNonlin™ version 8.3 (Certara) pharmacokinetic software, and the pharmacokinetic parameters were calculated using a linear-log trapezoidal method.

[7] = target: recombinant protein MYT1 (Homo sapiens (Human), UniProt Q99640); assay: In vitro assay for inhibiting MYT1 kinase activity (ADP-GLO); type: biochemical; settings: 10 μM ATP, read-out: Inhibitory activity against recombinant protein MYT1 IC50
Procedure: Recombinant MYT1 protein and the compounds were pre-incubated at room temperature for 15 min, and 10 μM ATP was then added to start the reaction. The mixture was incubated at room temperature for another 60 min, and the ADP-GLO reagent from Promega was then added. The resulting mixture was incubated in the dark for 40 min, a detection solution was then added, and the mixture was incubated for another 45-60 min. The chemiluminescence was determined using ENVISION. The inhibition rate and IC50 were calculated compared to the DMSO group.

[8] = system: MIA PaCa-2 cells; assay: In vitro anti-proliferative activity against MIA PaCa-2 cells (compound alone); type: cell-based; settings: 72 h, intracellular ATP content
Procedure: as §1, with “cells/well.” for “cells/well, and 20 nM gemcitabine was added.”, “10 μM” for “1000 nM”

[9] = in vitro; settings: dog, MDCK
Procedure: as §2

[10] = system: P-glycoprotein (P-gp, MDR1); assay: in vitro; settings: dog
Procedure: as §2

[11] = stability in FaSSIF, initial pH 6.52, 37° C.
[12] = stability in FeSSIF, initial pH 4.98, 37° C.
[13] = stability in SGF, initial pH 1.2, 37° C.
[14] = stability in Water, initial pH 7.7, 37° C.
[15] = female, CD-1, plasma, iv, injection 2 mg/kg

Sequence of recombinant protein MYT1 (Q99640 whole entry): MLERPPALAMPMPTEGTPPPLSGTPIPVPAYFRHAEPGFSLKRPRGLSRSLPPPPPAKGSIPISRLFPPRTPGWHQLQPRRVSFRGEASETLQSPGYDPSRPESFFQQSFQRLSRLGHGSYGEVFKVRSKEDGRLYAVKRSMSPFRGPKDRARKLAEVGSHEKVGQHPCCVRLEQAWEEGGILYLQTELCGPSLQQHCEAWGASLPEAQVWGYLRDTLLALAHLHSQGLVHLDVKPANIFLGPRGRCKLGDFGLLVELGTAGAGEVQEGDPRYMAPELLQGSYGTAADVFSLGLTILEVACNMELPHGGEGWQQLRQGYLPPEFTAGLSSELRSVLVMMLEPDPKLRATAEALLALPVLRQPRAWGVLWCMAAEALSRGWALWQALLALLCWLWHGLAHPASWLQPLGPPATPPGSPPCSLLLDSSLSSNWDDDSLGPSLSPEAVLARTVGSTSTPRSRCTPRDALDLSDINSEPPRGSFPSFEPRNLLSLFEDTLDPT

SMILES: Cc1cc2c(C(N)=O)c(N)n(-c3c(C)c(O)cc(F)c3C)c2nc1C (single isomer, unassigned) [Compound 2]
- IC50 ([1]; read-out: Anti-proliferative activity against MIA PaCa-2 cells (20 nM gemcitabine) IC50, with 20 nM gemcitabine, 72 h, intracellular ATP content): 18 nM
- anti-proliferative activity against MIA PaCa-2 cells in combination with gemcitabine (in words) ([1]; with 20 nM gemcitabine): stronger anti-proliferative activity than that of RP-6306
- Papp A-B Mean [2]: 27.10 10^−6 cm · s^−1
- Papp A-B Sample - 01 [2]: 27.93 10^−6 cm · s^−1
- Papp A-B Sample - 02 [2]: 26.28 10^−6 cm · s^−1
- Papp B-A Mean [2]: 42.24 10^−6 cm · s^−1
- Papp B-A Sample - 01 [2]: 39.97 10^−6 cm · s^−1
- Papp B-A Sample - 02 [2]: 44.50 10^−6 cm · s^−1
- permeability compared to RP-6306 (in words) [2]: superior permeability to that of RP-6306
- Papp A-B Mean [3]: 20.50 10^−6 cm · s^−1
- Papp A-B Sample - 01 [3]: 21.08 10^−6 cm · s^−1
- Papp A-B Sample - 02 [3]: 19.91 10^−6 cm · s^−1
- Papp B-A Mean [3]: 35.01 10^−6 cm · s^−1
- Papp B-A Sample - 01 [3]: 35.27 10^−6 cm · s^−1
- Papp B-A Sample - 02 [3]: 34.76 10^−6 cm · s^−1
- permeability compared to RP-6306 (in words) [3]: superior permeability to that of RP-6306
- stability compared to RP-6306 (in words) ([4]; FaSSIF, FeSSIF, water): more stable than RP-6306 in FaSSIF, FeSSIF, and water
- HPLC purity (%, 220 nm) 0.5 h [4, 11]: 88.76%
- HPLC purity (%, 220 nm) 0.5 h [4, 12]: 95.98%
- HPLC purity (%, 220 nm) 0.5 h [4, 13]: 98.69%
- HPLC purity (%, 220 nm) 0.5 h [4, 14]: 96.4%
- solubility compared to RP-6306 (in words) ([5]; FaSSIF, FeSSIF, SGF, water, methanol, tetrahydrofuran): higher solubility in various vehicles
- Solubility 0.5 h ([5]; FaSSIF, initial pH 6.52, 37° C.): 61 µg/mL (≈ 0.178 mM)
- Solubility 0.5 h ([5]; FeSSIF, initial pH 4.98, 37° C.): 327 µg/mL (≈ 0.955 mM)
- Solubility 0.5 h ([5]; Methanol): 40568 µg/mL (≈ 118 mM)
- Solubility 0.5 h ([5]; SGF, initial pH 1.2, 37° C.): 4865 µg/mL (≈ 14.2 mM)
- Solubility 0.5 h ([5]; Tetrahydrofuran): 6114 µg/mL (≈ 17.9 mM)
- Solubility 0.5 h ([5]; Water, initial pH 7.7, 37° C.): 270 µg/mL (≈ 0.789 mM)
- Vdss compared to RP-6306 (in words) [6]: greater increase in Vdss compared to RP-6306
- half-life T1/2 compared to RP-6306 (in words) [6]: longer half-life T1/2 compared to RP-6306
- AUC0-last ([6]; injection 2 mg/kg): 337.7 ng·h/mL
- Cl ([6]; injection 2 mg/kg): 94.4 mL/min/kg
- T1/2 ([6]; injection 2 mg/kg): 3.32 h
- Vdss ([6]; injection 2 mg/kg): 6.76 L/kg
- AUC0-last ([6]; oral administration 10 mg/kg): 638.2 ng·h/mL
- Cmax ([6]; oral administration 10 mg/kg): 603.3 ng/mL
- F % ([6]; oral administration 10 mg/kg): 44.5%
- T1/2 ([6]; oral administration 10 mg/kg): 3.84 h
- IC50 [7]: ≤ 200 nM
- IC50 [8]: 4320 nM

SMILES: Cc1cc2c(C(N)=O)c(N)n(-c3c(C)ccc(O)c3C)c2nc1C [RP-6306, reference compound]
- IC50 ([1]; Homo sapiens, MIA PaCa-2, 72 h, read-out: Anti-proliferative activity against MIA PaCa-2 cells (20 nM gemcitabine) IC50, with 20 nM gemcitabine, 72 h, intracellular ATP content): 29 nM
- efflux ratio at 90 min, 5 μM [9]: 2.17
- Papp A→B at 90 min, 5 µM ([9]; Papp A-B Mean): 17.1 ×10⁻⁶ cm/s
- Papp A→B at 90 min, 5 µM ([9]; Papp A-B Sample - 01): 15.1 ×10⁻⁶ cm/s
- Papp A→B at 90 min, 5 µM ([9]; Papp A-B Sample - 02): 19.1 ×10⁻⁶ cm/s
- Papp B→A at 90 min, 5 µM ([9]; Papp B-A Mean): 37.2 ×10⁻⁶ cm/s
- Papp B→A at 90 min, 5 µM ([9]; Papp B-A Sample - 01): 38.5 ×10⁻⁶ cm/s
- Papp B→A at 90 min, 5 µM ([9]; Papp B-A Sample - 02): 35.9 ×10⁻⁶ cm/s
- efflux ratio at 90 min, 5 μM ([10]; MDCK-MDR1): 2.64
- Papp A→B at 90 min, 5 µM ([10]; MDCK-MDR1, Papp A-B Mean): 13.9 ×10⁻⁶ cm/s
- Papp A→B at 90 min, 5 µM ([10]; MDCK-MDR1, Papp A-B Sample - 01): 13.9 ×10⁻⁶ cm/s
- Papp A→B at 90 min, 5 µM ([10]; MDCK-MDR1, Papp A-B Sample - 02): 14 ×10⁻⁶ cm/s
- Papp B→A at 90 min, 5 µM ([10]; MDCK-MDR1, Papp B-A Mean): 36.9 ×10⁻⁶ cm/s
- Papp B→A at 90 min, 5 µM ([10]; MDCK-MDR1, Papp B-A Sample - 01): 37.6 ×10⁻⁶ cm/s
- Papp B→A at 90 min, 5 µM ([10]; MDCK-MDR1, Papp B-A Sample - 02): 36.2 ×10⁻⁶ cm/s
- HPLC purity (%, 220 nm) 0.5 h [4, 11]: 58.88%
- HPLC purity (%, 220 nm) 0.5 h [4, 12]: 74.51%
- HPLC purity (%, 220 nm) 0.5 h [4, 13]: 98.18%
- HPLC purity (%, 220 nm) 0.5 h [4, 14]: 40.92%
- solubility at 0.5 h ([5]; Methanol): 20200 µg/mL (≈ 62.2 mM)
- solubility at 0.5 h ([5]; Tetrahydrofuran): 4520 µg/mL (≈ 13.9 mM)
- AUC(0-t) [6, 15]: 376 ng·h/mL
- half-life [6, 15]: 0.56 h
- Vd ([6]; female, CD-1, plasma, iv, injection 2 mg/kg, read-out: Vdss): 2.46 L/kg
- AUC(0-t) ([6]; female, CD-1, plasma, oral administration 10 mg/kg): 1030 ng·h/mL
- Cmax ([6]; female, CD-1, plasma, oral administration 10 mg/kg, read-out: Cmax): 881 ng/mL
- Cl ([6]; injection 2 mg/kg): 46.5 mL/min/kg
- F % ([6]; oral administration 10 mg/kg): 54.7%
